Molecular target: T1, hyaluronidase
T1 construct: gene SPAM1; bovine testicular enzyme is the usual preparation
Assay: turbidimetric assay with CTAB, […] nm
Assay type: biochemical
Conditions: hyaluronic acid substrate, acetate buffer pH 4.5, 37 °C, 45 min

For O=c1c(O)c(-c2ccc(O)c(O)c2)oc2cc(O)cc(O)c12 [quercetin (dihydrate)], the “Inhibition of hyaluronidase activity / Positive control” value was 509.79 µg/mL.
